Patent US11179471B2, “Peptide for cytosolic delivery” (priority 2017, dated 2021)
Entries after “also recorded” stand apart in the source; their conditions may differ. Residues, ends and D or L forms follow the SMILES beside them.

Legend:
[1] = Helix content from CD spectra in the presence of POPC/POPG (3:1) liposomes; assay type: physicochemical; conditions: result in words (FIG. 1)
Method: The helix content was calculated by the method of Y. H. Chen et al., 1972, based on 222-nm molar ellipticity ([…]) using the following formula: Helicity (%)=−([θ]222+2340)/30300*100.
The helix content of the peptides obtained in Example 1 (L17E, L17E/Q21E, L17Aad, HA/E1, HA/E2, and HAad) was calculated in the presence of POPC/POPG (3:1) liposomes by the method of Y. H. Chen et al., 1972, based on 222-nm molar ellipticity ([θ]222) using the following formula: Helix content (%)=−([θ]222+2340)/30300*100. Further, the CD spectra of the peptides were measured.

HeLa cells [2] = assay: Release of Alexa 488-dextran (10 kDa) into the cytoplasm, confocal microscopy; assay type: cell-based
Method: Cells; HeLa, peptides; 40 μM, Alexa 488-dextran (10 kDa); 200 μg/mL, treatment; 1 hr in α-MEM(−).
Cells; HeLa, peptides; 40 μM, Alexa 488-dextran (10 kDa); 200 μg/mL, treatment; 1 hr in α-MEM(−). The results are presented as means ±SE (n=3). **; p<0.01 (Student's t-test).
Cells; HeLa, peptides; 40 μM, Alexa 488-dextran (10 kDa); 200 μg/mL, treatment; 1 hr in α-MEM(−). Results are presented as means±SE (n=3). *; p<0.05, **; p<0.01, ***; p<0.001 (one-way ANOVA followed by the Tukey-Kramer honestly significant difference test (post-hoc test)).
(§1) In the presence of each peptide obtained in Example 1 (L17E, L17E/Q21E, HA/E1, HA/E2) (40 μM) or in the absence of the peptides (a control, no peptide), HeLa cells and Alexa 488-dextran (Molecular Probes, 10 kDa) (200 μg/mL) were treated in α-MEM(−) for 1 hour. The cells were washed, and observed with a confocal microscope.
as §1, with “L17Aad)” for “L17E/Q21E, HA/E1, HA/E2)”
as §1, with “(HAad, HA/E2, L17Aad, L17E)” for “(L17E, L17E/Q21E, HA/E1, HA/E2)”
When HeLa cells were incubated with Alexa 488-dextran (10 kDa) (200 μg/mL) as a macromolecular drug model in the presence of HAad (40 μM) in α-MEM(−) for 1 hour, Alexa 488-dextran release into about 75% of cells (cytosol) was observed. In contrast, when the incubation was performed in the presence of L17E, Alexa 488-dextran release into about 50% of the cells was observed.
HeLa cells, Alexa 488-dextran (Molecular Probes, 10 kDa) (200 μg/mL), and HAad; or HeLa cells, Alexa 488-dextran, (Molecular Probes, 10 kDa) (200 μg/mL), and HAad-homoR (20 μM) were treated in α-MEM(−) for 1 hour. The cells were washed, and observed with a confocal microscope.

HeLa cells [3] = assay: Intracellular release of Alexa 488-labeled human immunoglobulin (IgG, circa 160 kDa); assay type: cell-based; conditions: for cells in which intracellular release of human immunoglobulin was observed: α-MEM(−) 1 hour
Method: The cells and human immunoglobulin fluorescently labeled with Alexa 488 (IgG, circa 160 kDa) (500 μg/mL) were incubated in the presence of HAad, HA/E2, or L17E (40 μM each) in α-MEM(−) medium for 1 hour in the same manner as in Example 6.
The cells and human immunoglobulin fluorescently labeled with Alexa 488 (IgG, circa 160 kDa) (50 μg/mL: 1/10 the volume of Example 8) were incubated in the presence of HAad or L17E (40 μM each) in α-MEM(−) medium for 1 hour.
In the presence of HAad or L17E (20 μM each: ½ the amount used in Examples 8 and 9), the cells and human immunoglobulin fluorescently labeled with Alexa 488 (IgG, circa 160 kDa) (500 μg/mL: the same amount as in Example 8) were incubated in α-MEM(−) medium for 1 hour. […] (In FIG. 9, the intracellular release achieved by treatment with a low concentration of HAad was 2.5 times the release achieved by L17E. With respect to the peptide concentration required to detect the signal of intracellularly released human immunoglobulin in 35% of the cells, the concentration of L17E is 40 μM, and the concentration of HAad is 20 μM, which is half the concentration of L17E.)

HeLa cells [4] = assay: Nuclear accumulation of NLS-EGFP; assay type: cell-based; conditions: NLS-EGFP 10 μM; peptide 40 μM; α-MEM(−) 1 hour
Method: The cells and NLS-EGFP (10 μM) were incubated in the presence of HAad or L17E (40 μM each) in α-MEM(−) medium for 1 hour in the same manner as in Example 6. If NLS-EGFP is intracellularly released while maintaining its activity, localization of green fluorescence in the nuclei is observed. […] A high activity of HAad to release endosome-encapsulated substances was also confirmed in this system.

[5] = Cell viability 24 hours after peptide treatment in the presence of serum (WST-8); assay type: cell-based; conditions: cells (cell line not given); peptide 10 μM, 20 μM and 40 μM; α-MEM(+) 24 hours; WST-8
Method: (§2) After the cells were incubated in the presence of HAad, HA/E2, or L17E (each 10 μM, 20 μM, and 40 μM) in α-MEM(+) medium for 24 hours, the cell viability (%) was evaluated by WST-8 assay (FIG. 14). The cell viability (%) after 24 hours with the use of any peptide at any concentration was almost 100%.

cells = assay: as above; assay type: cell-based; conditions: 10-40 μM; α-MEM(+) 24 hours
Method: as §2

HeLa cells [6] = assay: Release of Alexa 488-dextran (10 kDa) into the cytoplasm, confocal microscopy; assay type: cell-based; remark: listed apart in the source

CC[C@H](C)[C@H](N)C(=O)N[C@@H](Cc1c[nH]c2ccccc12)C(=O)N[C@@H](CC(C)C)C(=O)N[C@H](C(=O)N[C@@H](C)C(=O)N[C@@H](CC(C)C)C(=O)N[C@@H](CCCCN)C(=O)N[C@@H](Cc1ccccc1)C(=O)N[C@@H](CC(C)C)C(=O)NCC(=O)N[C@@H](CCCCN)C(=O)N[C@@H](C)C(=O)N[C@@H](C)C(=O)N[C@@H](C)C(=O)N[C@@H](CCCCN)C(=O)N[C@@H](C)C(=O)N[C@@H](CCCC(=O)O)C(=O)N[C@@H](C)C(=O)N[C@@H](CCCCN)C(=O)N[C@@H](CCC(N)=O)C(=O)N[C@@H](CCCC(=O)O)C(=O)N[C@@H](CC(C)C)C(=O)N[C@@H](CO)C(=O)N[C@@H](CCCCN)C(=O)N[C@@H](CC(C)C)C(N)=O)[C@@H](C)O [HAad, H-IWLTALKFLGKAAAKAXAKQXLSKL-amide] (HELM PEPTIDE1{I.W.L.T.A.L.K.F.L.G.K.A.A.A.K.A.[O=C(O)CCC[C@H](N[*:1])C(=O)[*:2]].A.K.Q.[O=C(O)CCC[C@H](N[*:1])C(=O)[*:2]].L.S.K.L.[am]}$$$$V2.0)
helicity in the presence of an acidic lipid membrane [1]: high helicity | cells in which release of Alexa 488-dextran into the cytoplasm was observed (HeLa cells [2]; peptide 20 μM, Alexa 488-dextran (10 kDa) 200 μg/mL, 1 hour in α-MEM(−)): about 40% | endosome-encapsulated substance (Alexa 488-dextran) releasing activity, in words (HeLa cells [2]; peptide 40 μM, Alexa 488-dextran 200 μg/mL, 1 hr, compared with L17E): higher endosomal content release activity than L17E; also recorded: Significant outflow; also recorded: much more effectively | cells in which Alexa 488-dextran release into the cytosol was observed (HeLa cells [2]; peptide 40 μM, Alexa 488-dextran (10 kDa) 200 μg/mL, 1 hour in α-MEM(−)): about 75% | peptide concentration required to detect the signal of intracellularly released human immunoglobulin in 35% of the cells (HeLa cells [3]; IgG 500 μg/mL, 1 hour): 20 µM | intracellular release of IgG relative to L17E (HeLa cells [3]; peptide 20 μM, IgG 500 μg/mL (FIG. 9)): 2.5 times | cells in which intracellular release of human immunoglobulin was observed (HeLa cells [3]; peptide 20 μM, IgG 500 μg/mL): about 37% | IgG dose required for intracellular IgG release in 50% of the cells, relative (HeLa cells [3]; peptide 40 μM, HAad treatment compared with L17E): 1/10 | intracellular release of IgG relative to L17E (HeLa cells [3]; peptide 40 μM, IgG 50 μg/mL (FIG. 8)): 5 times | cells in which intracellular release of human immunoglobulin was observed (HeLa cells [3]; peptide 40 μM, IgG 50 μg/mL): 50% | intracellular release of IgG relative to L17E (HeLa cells [3]; peptide 40 μM, IgG 500 μg/mL (FIG. 7)): twice | cells in which intracellular release of human immunoglobulin was observed (HeLa cells [3]; peptide 40 μM, IgG 500 μg/mL): about 70% | cells in which localization of NLS-EGFP in the nuclei was observed (HeLa cells [4]): about 84% | viability at 24 h [5]: ~100% | toxicity, in words (cells): no significant toxicity | EC50 (HeLa cells [6]; Alexa 488-dextran (10 kDa) 200 μg/mL, 1 hour, read-out: peptide concentration required to detect the signal of intracellularly released Alexa 488-dextran in 50% of the cells): 20 µM | EC50 relative to L17E (HeLa cells [6]; dextran release, HAad vs L17E): ½
